One test relates to A549. As to the kind of experiment: Antiproliferative activity against human A549 cells after 48 hrs by MTT assay. It counts as functional, cell-based. Particulars: A549, 48 h.
The subject of another test is MCF7. As to the kind of experiment: Antiproliferative activity against human MCF7 cells after 48 hrs by MTT assay. It counts as functional, cell-based. Particulars: MCF7, 48 h. (In general: Tetrazolium dyes change colour on reduction, which living cells bring about.)

By IC50 is commonly meant the midpoint of a concentration-inhibition curve. Low values mean higher potency, high ones lower potency.

Regarding `COc1ccc(C2C3CCc4ccc(OC)cc4C3=NN2c2nc3nc4ccccc4nc3s2)cc1` (centres undefined), the IC50 with A549 was found to be 3040 nM; with MCF7 it was 1910 nM.
Regarding `C#Cc1cccc(Nc2ncnc3cc(OCCOC)c(OCCOC)cc23)c1` [ERLOTINIB], the results for the 50% inhibitory concentration (IC50) in the test with A549 and in the test with MCF7 were 4280 nM and 2320 nM, respectively.

(Values after ChEMBL document CHEMBL4330061, “Antitumoral activity of quinoxaline derivatives: A systematic review” (Eur J Med Chem, 2019).)
